Reference: patent US20260092076A1, “NOVEL COMPOUNDS” (Hoffmann-La Roche Inc., priority 2023, published 2026)

Key:
[1] = biological target: T1, NLRP3 (Homo sapiens, UniProt Q96P20); test: THP-1 cells pyroptosis assay; assay type: cell-based; design: Seed THP-1 cells (25,000 cells/well) containing 1.0 μg/ml LPS in 40 μl of RPMI medium; host or cells: THP-1 cells, LPS-primed, nigericin-stimulated; settings: THP-1 cells with 1.0 μg/ml LPS, compound 3 hours, nigericin 5 μM 1 hr, resazurin readout
Experimental: THP-1 cells (ATCC #TIB-202) were grown in RPMI containing L-glutamine (Gibco #11835) supplemented with 1 mM sodium pyruvate (Sigma #S8636) and penicillin (100 units/ml)/streptomycin (0.1 mg/ml) (Sigma #P4333) in 10% Fetal Bovine Serum (FBS) (Sigma #F0804). The cells were routinely passaged and grown to confluency (˜10^6 cells/ml). On the day of the experiment, THP-1 cells were harvested and resuspended into RPMI medium (without FBS). The cells were then counted and viability (>90%) checked by Trypan blue (Sigma #T8154). Appropriate dilutions were made to give a concentration of 625,000 cells/ml. To this diluted cell solution was added LPS (Sigma #L4524) to give a 1 μg/ml Final Assay Concentration (FAC). 40 μl of the final preparation was aliquoted into each well of a 96-well plate. The plate thus prepared was used for compound screening.
The following method step-by-step assay was followed for compound screening. • Seed THP-1 cells (25,000 cells/well) containing 1.0 μg/ml LPS in 40 μl of RPMI medium (without FBS) in 96-well, black walled, clear bottom cell culture plates coated with poly-D-lysine (VWR #734-0317) • Add 5 μl compound (8 points half-log dilution, with 10 μM top dose) or vehicle (DMSO 0.1% FAC) to the appropriate wells • Incubate for 3 hours at 37° C., 5% CO2 • Add 5 μl nigericin (Sigma #N7143) (FAC 5 μM) to all wells • Incubate for 1 hr at 37° C., 5% CO2 • At the end of the incubation period, spin plates at 300×g for 3 mins and remove supernatant • Then add 50 μl of resazurin (Sigma #R7017) (FAC 100 μM resazurin in RPMI medium without FBS) and incubate plates for a further 1-2 hours at 37° C. and 5% CO2 • Plates were read in an Envision reader at Ex 560 nm and Em 590 nm • IC50 data is fitted to a non-linear regression equation (log inhibitor vs response-variable slope 4-parameters)

[2] = biological target: T1, NLRP3; test: Human whole blood IL-1β release assay; assay type: cell-based; settings: human whole blood with 1 μg/ml LPS, compound 3 hours, nigericin 10 μM 1 hr, IL-1β by AlphaLisa
Experimental: For systemic delivery, the ability to inhibit NLRP3 when the compounds are present within the bloodstream is of great importance. For this reason, the NLRP3 inhibitory activity of a number of compounds in human whole blood was investigated in accordance with the following protocol. • Human whole blood in Li-heparin tubes was obtained from healthy donors from a volunteer donor panel. • Plate out 80 μl of whole blood containing 1 μg/ml of LPS in 96-well, clear bottom cell culture plate (Corning #3585) • Add 10 μl compound (8 points half-log dilution with 10 μM top dose) or vehicle (DMSO 0.1% FAC) to the appropriate wells • Incubate for 3 hours at 37° C., 5% CO2 • Add 10 μl nigericin (Sigma #N7143) (10 μM FAC) to all wells • Incubate for 1 hr at 37° C., 5% CO2 • At the end of the incubation period, spin plates at 300×g for 5 mins to pellet cells and remove 20 μl of supernatant and add to 96-well v-bottom plates for IL-1β analysis (note: these plates containing the supernatants can be stored at −80° C. to be analysed at a later date) • IL-1β was measured according to the manufacturer protocol (Perkin Elmer-AlphaLisa IL-1 Kit AL220F-5000) • IC50 data is fitted to a non-linear regression equation (log inhibitor vs response-variable slope 4-parameters)

T1 sequence (Q96P20 whole entry): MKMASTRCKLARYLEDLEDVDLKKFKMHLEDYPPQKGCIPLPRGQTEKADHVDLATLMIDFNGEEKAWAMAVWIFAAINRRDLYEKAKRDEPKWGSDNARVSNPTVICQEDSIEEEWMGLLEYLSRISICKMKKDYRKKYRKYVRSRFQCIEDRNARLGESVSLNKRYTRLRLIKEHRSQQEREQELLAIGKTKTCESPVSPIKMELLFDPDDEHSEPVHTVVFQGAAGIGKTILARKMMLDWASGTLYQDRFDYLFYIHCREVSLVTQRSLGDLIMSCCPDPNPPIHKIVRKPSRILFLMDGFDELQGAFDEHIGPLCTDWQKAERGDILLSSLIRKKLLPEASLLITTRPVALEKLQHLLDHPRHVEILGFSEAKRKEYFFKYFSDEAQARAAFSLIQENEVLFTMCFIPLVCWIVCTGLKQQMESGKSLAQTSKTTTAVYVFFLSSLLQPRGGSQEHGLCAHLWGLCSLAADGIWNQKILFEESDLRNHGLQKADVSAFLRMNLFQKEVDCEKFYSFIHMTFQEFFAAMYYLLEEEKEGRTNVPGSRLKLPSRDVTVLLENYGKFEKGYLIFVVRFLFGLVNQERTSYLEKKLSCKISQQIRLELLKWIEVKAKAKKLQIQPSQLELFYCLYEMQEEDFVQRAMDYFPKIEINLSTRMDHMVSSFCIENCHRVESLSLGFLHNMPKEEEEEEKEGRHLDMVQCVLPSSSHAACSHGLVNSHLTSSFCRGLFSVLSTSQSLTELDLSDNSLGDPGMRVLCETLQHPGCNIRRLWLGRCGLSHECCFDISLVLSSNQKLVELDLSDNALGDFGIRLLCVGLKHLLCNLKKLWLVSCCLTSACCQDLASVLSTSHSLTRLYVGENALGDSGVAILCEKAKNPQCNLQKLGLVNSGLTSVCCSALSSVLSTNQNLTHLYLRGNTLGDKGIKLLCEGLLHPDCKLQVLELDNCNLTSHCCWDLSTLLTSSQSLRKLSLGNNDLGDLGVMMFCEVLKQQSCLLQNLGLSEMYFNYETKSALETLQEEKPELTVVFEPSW

IC50 [1] [nM]	IC50 [2] [nM]	Structure (SMILES)
2	840	COc1cc2c(cn1)CN(c1nc3nc(-c4c(C)cc(C(F)(F)F)cc4O)ccc3o1)C2 [Example 12, 2-[2-(6-Methoxy-1,3-dihydropyrrolo[3,4-c]pyridin-2-yl)oxazolo[4,5-b]pyridin-5-yl]-3-methyl-5-(trifluoromethyl)phenol]
0.7	108	Cc1cc(C(F)(F)F)cc(O)c1-c1ccc2oc(N3Cc4c[nH]c(=O)cc4C3)nc2n1 [Example 1, 2-[5-[2-Hydroxy-6-methyl-4-(trifluoromethyl)phenyl]oxazolo[4,5-b]pyridin-2-yl]-3,5-dihydro-1H-pyrrolo[3,4-c]pyridin-6-one]
1.7	77	Cc1cc(Cl)cc(O)c1-c1ccc2oc(N3Cc4c[nH]c(=O)cc4C3)nc2n1 [Example 4, 2-[5-(4-Chloro-2-hydroxy-6-methyl-phenyl)oxazolo[4,5-b]pyridin-2-yl]-3,5-dihydro-1H-pyrrolo[3,4-c]pyridin-6-one]
71.1	676	Cc1cc(Cl)cc(O)c1-c1ccc2oc(N3CCc4[nH]c(=O)ccc4C3)nc2n1 [Example 37, 6-[5-(4-Chloro-2-hydroxy-6-methyl-phenyl)oxazolo[4,5-b]pyridin-2-yl]-1,5,7,8-tetrahydro-1,6-naphthyridin-2-one]
23.6	192	Cc1cc(C(F)(F)F)cc(O)c1-c1ccc2oc(N3CCc4ncncc4C3)nc2n1 [Example 24, 2-[2-(7,8-Dihydro-5H-pyrido[4,3-d]pyrimidin-6-yl)oxazolo[4,5-b]pyridin-5-yl]-3-methyl-5-(trifluoromethyl)phenol]
34.9	225	Cc1cc(C#N)cc(O)c1-c1ccc2oc(N3CCc4ncncc4C3)nc2n1 [Example 17, 4-[2-(7,8-Dihydro-5H-pyrido[4,3-d]pyrimidin-6-yl)oxazolo[4,5-b]pyridin-5-yl]-3-hydroxy-5-methyl-benzonitrile]
4.2	1450	Cc1cc(C(F)(F)F)cc(O)c1-c1ccc2oc(N3Cc4ccc(=O)[nH]c4C3)nc2n1 [Example 20, 6-[5-[2-Hydroxy-6-methyl-4-(trifluoromethyl)phenyl]oxazolo[4,5-b]pyridin-2-yl]-5,7-dihydro-1H-pyrrolo[3,4-b]pyridin-2-one]
52.2	423	Cc1cc(Cl)cc(O)c1-c1ccc2oc(N3CCc4cc(=O)[nH]cc4C3)nc2n1 [Example 27, 7-[5-(4-Chloro-2-hydroxy-6-methyl-phenyl)oxazolo[4,5-b]pyridin-2-yl]-2,5,6,8-tetrahydro-2,7-naphthyridin-3-one]
46.7	166	Cc1cc(C(F)F)cc(O)c1-c1ccc2oc(N3CCc4ncncc4C3)nc2n1 [Example 26, 5-(Difluoromethyl)-2-[2-(7,8-dihydro-5H-pyrido[4,3-d]pyrimidin-6-yl)oxazolo[4,5-b]pyridin-5-yl]-3-methyl-phenol]
22	168	Cc1cc(Cl)cc(O)c1-c1ccc2oc(N3Cc4cc(=O)[nH]nc4C3)nc2n1 [Example 38, 6-[5-(4-chloro-2-hydroxy-6-methyl-phenyl)oxazolo[4,5-b]pyridin-2-yl]-5,7-dihydro-2H-pyrrolo[3,4-c]pyridazin-3-one]
3.3	301	Cc1cc(C(F)(F)F)cc(O)c1-c1ccc2oc(N3Cc4cc(=O)n(C)cc4C3)nc2n1 [Example 2, 2-[5-[2-Hydroxy-6-methyl-4-(trifluoromethyl)phenyl]oxazolo[4,5-b]pyridin-2-yl]-5-methyl-1,3-dihydropyrrolo[3,4-c]pyridin-6-one]
25.6	142	Cc1cc(Cl)cc(O)c1-c1ccc2oc(N3CCc4n[nH]cc4C3)nc2n1 [Example 25, 5-Chloro-3-methyl-2-[2-(2,4,6,7-tetrahydropyrazolo[4,3-c]pyridin-5-yl)oxazolo[4,5-b]pyridin-5-yl]phenol]
